Test results: the NIST ThermoML archive (doi:10.1016/j.jct.2008.02.020)
Numbers after ± are expanded uncertainties.

Conditions: Liquid, Buoyancy - hydrostatic balance with magnetic suspension - one sinker

CCCCCCCCC [nonane]
mass density (233.15 K, 101.46 kPa): 763.962 ± 0.24 kg/m3
mass density (233.15 K, 1176.1 kPa): 764.563 ± 0.24 kg/m3
mass density (233.15 K, 2178.2 kPa): 765.126 ± 0.24 kg/m3
mass density (233.15 K, 4167 kPa): 766.231 ± 0.24 kg/m3
mass density (233.15 K, 5936.5 kPa): 767.203 ± 0.24 kg/m3
mass density (233.15 K, 8144.5 kPa): 768.395 ± 0.24 kg/m3
mass density (233.15 K, 10066 kPa): 769.42 ± 0.24 kg/m3
mass density (233.15 K, 12148 kPa): 770.516 ± 0.25 kg/m3
mass density (233.15 K, 14076 kPa): 771.516 ± 0.25 kg/m3
mass density (233.15 K, 16087 kPa): 772.548 ± 0.25 kg/m3
mass density (233.15 K, 18067 kPa): 773.551 ± 0.25 kg/m3
mass density (233.15 K, 19984 kPa): 774.511 ± 0.25 kg/m3
mass density (233.15 K, 21990 kPa): 775.502 ± 0.25 kg/m3
mass density (233.15 K, 24044 kPa): 776.506 ± 0.25 kg/m3
mass density (233.15 K, 25990 kPa): 777.446 ± 0.25 kg/m3
mass density (233.15 K, 27927 kPa): 778.373 ± 0.25 kg/m3
mass density (233.15 K, 29906 kPa): 779.308 ± 0.25 kg/m3
mass density (253.15 K, 101.82 kPa): 748.678 ± 0.24 kg/m3
mass density (253.15 K, 1135.3 kPa): 749.335 ± 0.24 kg/m3
mass density (253.15 K, 2178.6 kPa): 749.992 ± 0.24 kg/m3
mass density (253.15 K, 3967.8 kPa): 751.107 ± 0.24 kg/m3
mass density (253.15 K, 6147.5 kPa): 752.446 ± 0.24 kg/m3
mass density (253.15 K, 8138 kPa): 753.648 ± 0.24 kg/m3
mass density (253.15 K, 10112 kPa): 754.82 ± 0.24 kg/m3
mass density (253.15 K, 12111 kPa): 755.991 ± 0.24 kg/m3
mass density (253.15 K, 14130 kPa): 757.156 ± 0.24 kg/m3
mass density (253.15 K, 16140 kPa): 758.299 ± 0.24 kg/m3
mass density (253.15 K, 18106 kPa): 759.398 ± 0.24 kg/m3
mass density (253.15 K, 20064 kPa): 760.484 ± 0.24 kg/m3
mass density (253.15 K, 22026 kPa): 761.552 ± 0.24 kg/m3
mass density (253.15 K, 23955 kPa): 762.59 ± 0.24 kg/m3
mass density (253.15 K, 25972 kPa): 763.661 ± 0.24 kg/m3
mass density (253.15 K, 27913 kPa): 764.677 ± 0.24 kg/m3
mass density (253.15 K, 29967 kPa): 765.739 ± 0.24 kg/m3
mass density (273.15 K, 102.52 kPa): 733.389 ± 0.23 kg/m3
mass density (273.15 K, 1156.8 kPa): 734.143 ± 0.23 kg/m3
mass density (273.15 K, 2138 kPa): 734.842 ± 0.23 kg/m3
mass density (273.15 K, 4026 kPa): 736.166 ± 0.23 kg/m3
mass density (273.15 K, 6169.4 kPa): 737.644 ± 0.23 kg/m3
mass density (273.15 K, 8161.4 kPa): 738.99 ± 0.23 kg/m3
mass density (273.15 K, 10122 kPa): 740.29 ± 0.23 kg/m3
mass density (273.15 K, 12106 kPa): 741.586 ± 0.23 kg/m3
mass density (273.15 K, 14101 kPa): 742.864 ± 0.23 kg/m3
mass density (273.15 K, 16067 kPa): 744.108 ± 0.23 kg/m3
mass density (273.15 K, 18074 kPa): 745.354 ± 0.23 kg/m3
mass density (273.15 K, 20036 kPa): 746.555 ± 0.24 kg/m3
mass density (273.15 K, 22000 kPa): 747.737 ± 0.24 kg/m3
mass density (273.15 K, 23996 kPa): 748.923 ± 0.24 kg/m3
mass density (273.15 K, 25994 kPa): 750.093 ± 0.24 kg/m3
mass density (273.15 K, 27982 kPa): 751.238 ± 0.24 kg/m3
mass density (273.15 K, 29876 kPa): 752.316 ± 0.24 kg/m3
mass density (293.15 K, 101.69 kPa): 717.968 ± 0.22 kg/m3
mass density (293.15 K, 1184.3 kPa): 718.847 ± 0.22 kg/m3
mass density (293.15 K, 2129.2 kPa): 719.604 ± 0.22 kg/m3
mass density (293.15 K, 3960.5 kPa): 721.055 ± 0.23 kg/m3
mass density (293.15 K, 6115.4 kPa): 722.729 ± 0.23 kg/m3
mass density (293.15 K, 7981.6 kPa): 724.145 ± 0.23 kg/m3
mass density (293.15 K, 10015 kPa): 725.663 ± 0.23 kg/m3
mass density (293.15 K, 12149 kPa): 727.214 ± 0.23 kg/m3
mass density (293.15 K, 13981 kPa): 728.526 ± 0.23 kg/m3
mass density (293.15 K, 16170 kPa): 730.062 ± 0.23 kg/m3
mass density (293.15 K, 17943 kPa): 731.285 ± 0.23 kg/m3
mass density (293.15 K, 20200 kPa): 732.813 ± 0.23 kg/m3
mass density (293.15 K, 22156 kPa): 734.115 ± 0.23 kg/m3
mass density (293.15 K, 24158 kPa): 735.421 ± 0.23 kg/m3
mass density (293.15 K, 26136 kPa): 736.696 ± 0.23 kg/m3
mass density (293.15 K, 28126 kPa): 737.958 ± 0.23 kg/m3
mass density (293.15 K, 29978 kPa): 739.115 ± 0.23 kg/m3
mass density (313.15 K, 98.73 kPa): 702.339 ± 0.22 kg/m3
mass density (313.15 K, 1168.7 kPa): 703.323 ± 0.22 kg/m3
mass density (313.15 K, 2131.9 kPa): 704.205 ± 0.22 kg/m3
mass density (313.15 K, 3967.4 kPa): 705.852 ± 0.22 kg/m3
mass density (313.15 K, 6162.3 kPa): 707.777 ± 0.22 kg/m3
mass density (313.15 K, 8113.9 kPa): 709.449 ± 0.22 kg/m3
mass density (313.15 K, 10024 kPa): 711.038 ± 0.22 kg/m3
mass density (313.15 K, 12173 kPa): 712.791 ± 0.22 kg/m3
mass density (313.15 K, 14170 kPa): 714.384 ± 0.22 kg/m3
mass density (313.15 K, 16194 kPa): 715.964 ± 0.22 kg/m3
mass density (313.15 K, 17956 kPa): 717.315 ± 0.22 kg/m3
mass density (313.15 K, 20057 kPa): 718.889 ± 0.22 kg/m3
mass density (313.15 K, 22191 kPa): 720.459 ± 0.23 kg/m3
mass density (313.15 K, 24136 kPa): 721.862 ± 0.23 kg/m3
mass density (313.15 K, 26139 kPa): 723.282 ± 0.23 kg/m3
mass density (313.15 K, 28073 kPa): 724.629 ± 0.23 kg/m3
mass density (313.15 K, 29972 kPa): 725.932 ± 0.23 kg/m3
mass density (333.15 K, 102.84 kPa): 686.431 ± 0.21 kg/m3
mass density (333.15 K, 1137.5 kPa): 687.521 ± 0.21 kg/m3
mass density (333.15 K, 2113.9 kPa): 688.539 ± 0.21 kg/m3
mass density (333.15 K, 4162.7 kPa): 690.632 ± 0.21 kg/m3
mass density (333.15 K, 6145.3 kPa): 692.599 ± 0.21 kg/m3
mass density (333.15 K, 8151.9 kPa): 694.535 ± 0.21 kg/m3
mass density (333.15 K, 10024 kPa): 696.296 ± 0.21 kg/m3
mass density (333.15 K, 12114 kPa): 698.208 ± 0.22 kg/m3
mass density (333.15 K, 14127 kPa): 700.005 ± 0.22 kg/m3
mass density (333.15 K, 15989 kPa): 701.627 ± 0.22 kg/m3
mass density (333.15 K, 18027 kPa): 703.362 ± 0.22 kg/m3
mass density (333.15 K, 19954 kPa): 704.977 ± 0.22 kg/m3
mass density (333.15 K, 22112 kPa): 706.723 ± 0.22 kg/m3
mass density (333.15 K, 24080 kPa): 708.292 ± 0.22 kg/m3
mass density (333.15 K, 26038 kPa): 709.821 ± 0.22 kg/m3
mass density (333.15 K, 28054 kPa): 711.366 ± 0.22 kg/m3
mass density (333.15 K, 29912 kPa): 712.772 ± 0.22 kg/m3
mass density (353.15 K, 97.13 kPa): 671.217 ± 0.2 kg/m3
mass density (353.15 K, 2136.7 kPa): 672.617 ± 0.21 kg/m3
mass density (353.15 K, 6141.9 kPa): 677.222 ± 0.21 kg/m3
mass density (353.15 K, 8110.9 kPa): 679.378 ± 0.21 kg/m3
mass density (353.15 K, 10054 kPa): 681.439 ± 0.21 kg/m3
mass density (353.15 K, 12124 kPa): 683.57 ± 0.21 kg/m3
mass density (353.15 K, 14144 kPa): 685.589 ± 0.21 kg/m3
mass density (353.15 K, 15989 kPa): 687.385 ± 0.21 kg/m3
mass density (353.15 K, 18011 kPa): 689.305 ± 0.21 kg/m3
mass density (353.15 K, 20036 kPa): 691.174 ± 0.21 kg/m3
mass density (353.15 K, 21991 kPa): 692.938 ± 0.21 kg/m3
mass density (353.15 K, 23965 kPa): 694.678 ± 0.21 kg/m3
mass density (353.15 K, 25968 kPa): 696.403 ± 0.21 kg/m3
mass density (353.15 K, 27955 kPa): 698.078 ± 0.22 kg/m3
mass density (353.15 K, 29939 kPa): 699.718 ± 0.22 kg/m3
mass density (373.15 K, 102.37 kPa): 653.427 ± 0.2 kg/m3
mass density (373.15 K, 1227.9 kPa): 655.018 ± 0.2 kg/m3
mass density (373.15 K, 2148.9 kPa): 656.298 ± 0.2 kg/m3
mass density (373.15 K, 4131.5 kPa): 658.968 ± 0.2 kg/m3
mass density (373.15 K, 6127 kPa): 661.551 ± 0.2 kg/m3
mass density (373.15 K, 8138.8 kPa): 664.058 ± 0.2 kg/m3
mass density (373.15 K, 10022 kPa): 666.323 ± 0.2 kg/m3
mass density (373.15 K, 12112 kPa): 668.749 ± 0.2 kg/m3
mass density (373.15 K, 14119 kPa): 671.003 ± 0.2 kg/m3
mass density (373.15 K, 16134 kPa): 673.197 ± 0.21 kg/m3
mass density (373.15 K, 18104 kPa): 675.276 ± 0.21 kg/m3
mass density (373.15 K, 20078 kPa): 677.302 ± 0.21 kg/m3
mass density (373.15 K, 22064 kPa): 679.286 ± 0.21 kg/m3
mass density (373.15 K, 23988 kPa): 681.158 ± 0.21 kg/m3
mass density (373.15 K, 26124 kPa): 683.184 ± 0.21 kg/m3
mass density (373.15 K, 28010 kPa): 684.93 ± 0.21 kg/m3
mass density (373.15 K, 29905 kPa): 686.647 ± 0.21 kg/m3
